Patent US6413937B1, “Combinations for use in increasing the potency of a substrate for multidrug resistance related protein” (Dublin City University and Enterprise Ireland, priority 1996, dated 2002)
“Also recorded” adds a separate entry of the source. One block for each compound: values may come before it.

Experiments:
MRP pump = biological target: T1, MRP pump (Homo sapiens, UniProt P33527); assay: ATP-dependent transport of [3H]LTC4 into inside-out plasma membrane vesicles from HL60ADR cells; assay type: biochemical; details: for MRP-pump inhibitory activity: conclusion from Table 4
T1 construct: inside-out plasma membrane vesicles prepared from HL60ADR cells; endogenous in cells; host or cells: HL60ADR cells (plasma membrane vesicles)
Procedure: To determine if the NSAIDs were acting directly on the MRP pump the uptake of [^3H]LTC4 into inside-out plasma membrane vesicles prepared from HL60ADR cells was examined using a rapid filtration procedure (Ishikawa,T., et al. (1994); J. Biol. Chem. 269 (46); 29085-29093). ATP-dependent transport of [^3H]LTC4 into the membrane vesicles was measured by a rapid filtration method using a Millipore sampling manifold. The membrane vesicles were thawed at 37° C. before use and kept on ice. The reaction components consisted of 0.25 M sucrose/10 mM Tris.HCl pH 7.4/1 mM ATP/10 mM MgCl2/10 mM creatine phosphate/ 110 μg/ml creatine kinase and 10 nM [^3H]LTC4, with 50 μg of the inside-out vesicle preparation, in a final volume of 110 μl. This suspension was incubated at 37° C., with gentle mixing, and aliquots, 20 μl, were taken at the indicated points. Those aliquots were diluted in 1 ml of ice-cold incubation buffer before being applied to 0.22 μm Millipore GSWP nitrocellulose filters, pre-soaked in ice-cold incubation buffer, under suction. The filters were subsequently washed with 3 ml ice-cold incubation buffer, and absorbed radioactivity was measured using a scintillation counter (Beckman). In control experiments ATP was replaced with 5μ-AMP to determine the ATP-dependent transport.

A549 cell line = assay: miniaturised in vitro colorimetric cell survival assay (acid phosphatase end-point), A549; assay type: cell-based, human; details: alone or + Adriamycin 40 ng/ml
Procedure: (§1) All the results presented in this Example for the DLKP, A549 and OAW42-SR cell lines were derived using the same miniaturised in vitro calorimetric assay system. On Day 1 of the assay 1000 cells/well/100 μl were plated into 96-well plates. Cells were allowed to attach overnight and cell viability was visually assessed. […] NSAID plus chemotherapeutic drug) to be analysed were added onto the cells. The individual drugs were added separately in 50 μl quantities (4× stocks, to take into account the dilution effect of having 200 μl final volume in each well). The drugs were left on the cells for five further days (Day 7) and cell number was determined using the acid phosphatase end-point assay which uses p-nitrophenol phosphate as substrate (Martin, A. and Clynes, M. (1991) In Vitro Dev. Biol., 27A, 183-184). On Day 7 the culture medium was removed from the cells and they were washed once with phosphate buffered saline (PBS). […] After the incubation period 50 μl of 1N NaOH was added to each well to develop the colour. The plates were then read at 405 nm (reference 620 nm) on an ELISA plate-reader. […] All results are the cell survival means ±S.D. from a minimum of three experiments.

MRP-specific substrates = assay: screen for enhancement of toxicity of MRP substrates by NSAIDs; assay type: cell-based; details: summary statements
[1] = test system: GST prepared from DLKP cells; assay: total GST assay with 1-chloro-2,4-dinitrobenzene; assay type: biochemical, human
Procedure: The other NSAIDs were tested in a total GST assay (Habig, W. H., and Jakoby, W. B., (1981); Methods Enzymol., 77: 218-231). Total cellular GST activity was assayed, using 1-chloro-2,4-dinitrobenzene as a substrate, according to the method of Habig, W. H., and Jakoby, W. B., (1981); supra. Due to spectrophotometric interference at 340 nm, caused by the majority of the NSAIDs, the assays were all performed at 360 nm, without any apparent effect on the rate of the control reaction The results are shown in Table 5.

DLKP cells = assay: Example 5 miniaturised in vitro cell toxicity assay, DLKP; assay type: cell-based, human
Procedure: For the monolayer cell lines miniaturised in vitro assays were used to determine drug toxicity. On Day I cells were seeded at 1×10^3 cells/well in a 96-well plate and left to attach overnight. Drug was added on Day 2, and the assay was terminated on Day 7. Cell number was then evaluated by using one of two colorimetric end-point […]: the acid phosphatase assay (Martin, A., and Clynes, M. (1991); In vitro Cell and Development Biology, 27A: 183-184) or the crystal violet dye elution assay (Martin, A., and Clynes, M. (1993); Cytotechnology, 11:49-58). All assays were performed in triplicate.

DLKP cell line = assay: miniaturised in vitro colorimetric cell survival assay (acid phosphatase end-point), DLKP; assay type: cell-based, human
Procedure: as §1

HL-60S cells = assay: etoposide-induced apoptosis (nuclear fragmentation), HL-60S; assay type: cell-based; details: HL-60S (sensitive); etoposide with sulindac; FIG. 2
Procedure: An experiment was carried out to determine the effect of the NSAID sulindac on etoposide-induced apoptosis in two cell lines, namely HL-60S and HL-60ADR. These cell lines were donated by Dr. Melvin Center, Kansas State University, Manhattan Kans. 66506, U.S.A. For the HL-60S and ADR cell lines the percentage of apoptotic cells within the cell population, following drug exposure, was used to quantify toxicity. Cells were plated in fresh medium at a concentration of 10^6 cells/ml in a 24-well plate (Greiner) and drugs were then added to the wells. A 200 μl sample from each well was taken after 4 and 8 hrs. Samples were cytospun for 2 min at 500 rpm using a Shandon Cytofuge3. After air-drying the cytospins were stained using a Romanowsky staining kit, Rappi-Diff II (Langanbach), dried and mounted in DPX (BDH). Slides were studied on an Optiphot microscope (Nikon) fitted with a 40× objective, and visualised on a monitor via a Mitsubishi CCD-100E colour CCD-camera and a 0.6× relay lens. Nuclear fragmentation was used as a morphological marker for apoptosis and a minimum of 200 cells were assessed in at least three different microscopic fields. Results were expressed as the percentage of apoptotic cells within the population. Each experiment was repeated in duplicate.

[2] = read-out: % inhibition of transport of [3H]LTC4

T1 sequence (P33527 whole entry): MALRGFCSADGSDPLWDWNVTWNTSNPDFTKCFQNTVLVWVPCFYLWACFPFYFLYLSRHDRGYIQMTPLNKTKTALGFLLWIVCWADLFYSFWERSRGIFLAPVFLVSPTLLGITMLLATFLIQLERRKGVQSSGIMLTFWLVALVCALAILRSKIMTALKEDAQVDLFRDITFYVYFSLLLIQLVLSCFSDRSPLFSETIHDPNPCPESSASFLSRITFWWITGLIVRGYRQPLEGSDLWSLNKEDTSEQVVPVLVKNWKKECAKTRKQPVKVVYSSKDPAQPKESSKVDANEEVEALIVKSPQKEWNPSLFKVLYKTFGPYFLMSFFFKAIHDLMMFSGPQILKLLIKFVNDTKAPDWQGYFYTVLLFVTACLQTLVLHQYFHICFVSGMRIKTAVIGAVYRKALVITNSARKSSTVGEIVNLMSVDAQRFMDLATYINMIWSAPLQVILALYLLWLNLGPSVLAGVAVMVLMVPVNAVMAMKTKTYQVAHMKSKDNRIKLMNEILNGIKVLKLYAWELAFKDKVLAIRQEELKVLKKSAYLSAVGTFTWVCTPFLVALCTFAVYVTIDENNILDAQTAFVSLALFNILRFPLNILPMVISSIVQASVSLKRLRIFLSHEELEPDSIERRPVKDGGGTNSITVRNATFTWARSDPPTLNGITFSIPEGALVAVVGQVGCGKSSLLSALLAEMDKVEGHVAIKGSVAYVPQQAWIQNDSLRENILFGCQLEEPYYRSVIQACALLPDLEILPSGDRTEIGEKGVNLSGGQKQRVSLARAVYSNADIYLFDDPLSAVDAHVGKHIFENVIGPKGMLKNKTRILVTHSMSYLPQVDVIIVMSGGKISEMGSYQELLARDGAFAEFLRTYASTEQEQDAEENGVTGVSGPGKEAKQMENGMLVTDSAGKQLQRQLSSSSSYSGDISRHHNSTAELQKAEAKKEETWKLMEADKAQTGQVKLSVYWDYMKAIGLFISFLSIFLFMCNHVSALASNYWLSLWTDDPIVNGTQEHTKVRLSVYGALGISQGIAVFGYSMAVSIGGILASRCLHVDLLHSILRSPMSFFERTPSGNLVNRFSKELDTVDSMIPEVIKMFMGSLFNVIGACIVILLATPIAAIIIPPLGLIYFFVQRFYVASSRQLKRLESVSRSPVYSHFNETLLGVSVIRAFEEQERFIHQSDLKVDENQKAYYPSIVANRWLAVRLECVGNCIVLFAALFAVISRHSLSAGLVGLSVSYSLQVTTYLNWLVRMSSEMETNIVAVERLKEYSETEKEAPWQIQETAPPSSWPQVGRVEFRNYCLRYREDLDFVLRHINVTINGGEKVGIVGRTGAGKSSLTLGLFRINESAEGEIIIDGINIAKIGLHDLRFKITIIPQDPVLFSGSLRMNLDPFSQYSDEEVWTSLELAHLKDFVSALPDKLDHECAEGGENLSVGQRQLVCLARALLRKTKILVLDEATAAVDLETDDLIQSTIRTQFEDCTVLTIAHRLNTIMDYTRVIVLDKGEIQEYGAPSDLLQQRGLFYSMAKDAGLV

- MRP-pump inhibitory activity (MRP pump): have MRP-pump inhibitory activity
- inhibition at 49 µM (MRP pump; [2]): 20%
- inhibition at 98 µM (MRP pump; [2]): 70%
Compound: COc1ccc2c(c1)c(CC(=O)O)c(C)n2C(=O)c1ccc(Cl)cc1 [Indomethacin, indomethacin]
- % cell survival (A549 cell line; ix) Indomethacin 0.60 μg/ml): 92.38 ± 13.30%
- % cell survival (A549 cell line; ix) Indomethacin 1.20 μg/ml): 87.54 ± 13.07%
- % cell survival (A549 cell line; ix) Indomethacin 2.40 μg/ml): 92.18 ± 7.09%
- enhancement of toxicity of MRP substrates (MRP-specific substrates): positive; also recorded: have been found to enhance the toxicity of MRP-specific substrates
- % Inhibition of GST ([1]; 0.4 mM): 54%
- % cell survival (DLKP cells; Indomethacin 0.6 μg/ml, alone or + Teniposide 6.25 ng/ml): 102.06 ± 5.11%
- % cell survival (DLKP cells; Indomethacin 1.25 μg/ml, alone or + Teniposide 6.25 ng/ml): 101.28 ± 5.12%
- % cell survival (DLKP cells; Indomethacin 2.5 μg/ml, alone or + Teniposide 6.25 ng/ml): 96.18 ± 3.43%

- inhibition at 45 µM (MRP pump; 45 μM): 25%
- inhibition at 89 µM (MRP pump; 89 μM): 69%
- MRP-pump inhibitory activity (MRP pump): have MRP-pump inhibitory activity
Compound: CC1=C(CC(=O)O)c2cc(F)ccc2/C1=C\c1ccc([S+](C)[O-])cc1 (centres unmarked) [Sulindac, sulindac]
- % cell survival (DLKP cell line; ii) Sulindac 1.5 μg/ml, alone or + Vincristine 1.0 ng/ml): 111.6 ± 9.7%
- % cell survival (DLKP cell line; ii) Sulindac 3 μg/ml, alone or + Vincristine 1.0 ng/ml): 108.45 ± 10.6%
- % cell survival (DLKP cell line; ii) Sulindac 6 μg/ml, alone or + Vincristine 1.0 ng/ml): 114.1 ± 3.9%
- % cell survival (DLKP cell line; iii) Sulindac 1.5 μg/ml, alone or + VP-16 100 ng/ml): 95.07 ± 1.6%
- % cell survival (DLKP cell line; iii) Sulindac 3 μg/ml, alone or + VP-16 100 ng/ml): 93.68 ± 2.0%
- % cell survival (DLKP cell line; iii) Sulindac 6 μg/ml, alone or + VP-16 100 ng/ml): 90.75 ± 3.3%
- % cell survival (DLKP cell line; iv) Sulindac 1.5 μg/ml, alone or + 5-FU 0.5 μg/ml): 99.70 ± 7.7%
- % cell survival (DLKP cell line; iv) Sulindac 3 μg/ml, alone or + 5-FU 0.5 μg/ml): 98.79 ± 8.8%
- % cell survival (DLKP cell line; iv) Sulindac 6 μg/ml, alone or + 5-FU 0.5 μg/ml): 93.61 ± 5.9%
- % cell survival (DLKP cell line; vii) Sulindac 1.5 μg/ml, alone or + PAT 1.5 μg/ml): 96.51 ± 5.3%
- % cell survival (DLKP cell line; vii) Sulindac 3.0 μg/ml, alone or + PAT 1.5 μg/ml): 99.99 ± 2.9%
- % cell survival (DLKP cell line; vii) Sulindac 6.0 μg/ml, alone or + PAT 1.5 μg/ml): 94.23 ± 1.2%
- % cell survival (A549 cell line; xi) Sulindac 1.50 μg/ml): 100.00 ± 13.20%
- % cell survival (A549 cell line; xi) Sulindac 3.20 μg/ml): 101.00 ± 12.14%
- % cell survival (A549 cell line; xi) Sulindac 6.30 μg/ml): 96.01 ± 5.36%
- enhancement of toxicity of MRP substrates (MRP-specific substrates): have been found to enhance the toxicity of MRP-specific substrates
- % Inhibition of GST ([1]; 0.25 mM): 42.6%
- etoposide-induced apoptosis, percentage of apoptotic cells (HL-60S cells): the increased apoptosis is only due to an additive effect of both etoposide and sulindac
- % cell survival (DLKP cells; Sulindac 1.5 μg/ml, alone or + Epirubicin 1 ng/ml): 99.92 ± 3.3%
- % cell survival (DLKP cells; Sulindac 3.0 μg/ml, alone or + Epirubicin 1 ng/ml): 100.29 ± 3.2%
- % cell survival (DLKP cells; Sulindac 6.0 μg/ml, alone or + Epirubicin 1 ng/ml): 100.07 ± 3.6%
